Data taken from US7521418B2, “Use of a polyene macrolide antifungal agent in combination with a glycopeptide antibacterial agent” (Theravance, Inc., priority 2003, dated 2009).

Tested on: G. candidum ATCC 62231
Test: Checkerboard MIC assay, FICI
Format: cell-based, Geotricium candidum
Details: combination with Compound 1
Text: The following assay was used to determine the minimum inhibitory concentration (MIC) and fractional inhibitory concentration index (FICI) for combinations of an antifungal agent and a glycopeptide antibacterial agent. This assay and methods for calculating FICI are well known in the art. See, for example, Eliopoulos, E. G. and R. Moellering, Jr. “Antimicrobial Combinations” in Antibiotics in Laboratory Medicine, edited by V. Lorian, 4th Ed., Williams & Wilkins, Baltimore, MD, pp. 330-396 (1996); […] et al., Antimicrobial Agents and Chemotherapy 47(4):1416-1418 (2003); or […] et al., Antimicrobial Agents and Chemotherapy 46(10):3323-3326 (2002). […] The MIC of the glycopeptide antibacterial agent determined from this experiment was used in FIC calculations. […]

Structure (SMILES)	FICI
C[C@@H]1[C@H](O)[C@@H](C)/C=C/C=C/C=C/C=C/C=C/C=C/C=C/[C@H](O[C@@H]2O[C@H](C)[C@@H](O)[C@H](N)[C@@H]2O)C[C@@H]2O[C@](O)(C[C@@H](O)C[C@@H](O)[C@H](O)CC[C@@H](O)C[C@@H](O)CC(=O)O[C@H]1C)C[C@H](O)[C@H]2C(=O)O [Amphotericin B]	0.63
C[C@@H]1[C@H](O)[C@@H](C)/C=C/C=C/CC/C=C/C=C/C=C/C=C/C(O[C@H]2O[C@H](C)[C@@H](O)[C@H](N)[C@@H]2O)CC2O[C@](O)(CC(O)C(O)CCC(O)CC(O)CC(O)CC(=O)O[C@H]1C)CC(O)C2C(=O)O (some centres unmarked) [Nystatin]	0.31
